Test results: patent US20200190062A1, “HETEROCYCLIC COMPOUND AND PHARMACEUTICAL COMPOSITION COMPRISING SAME” (BEYONDBIO INC., priority 2015, published 2020)

Key:
CDK1/cyclinB = molecular target: T1, CDK1/cyclinB (Homo sapiens, UniProt P06493); assay: Inhibition of CDK enzyme activity (ADP-Glo kinase assay); type: biochemical; conditions: 10 uM ATP, histone H1 substrate
T1 construct: purchased Merck Millipore
Procedure: (§1) Test compounds were prepared by dissolving the compounds obtained in the above Examples in dimethylsulfoxide (DMSO) at a concentration of 10 mM. The test compounds were diluted to 200 nM, 50 nM, […], 3.13 nM, 0.78 nM, and 0.2 nM and used in an enzyme reaction.
(§2) CDK enzyme reaction was conducted in a buffer containing 50 mM Tris-HCl (pH 7.5), 10 mM MgCl2, 1 mM EGTA, 1 mM EDTA, and 2 mM DTT. CDK1/cyclinB, CDK2/cylcinE, CDK5/p25, and CDK6/cyclinD3 enzymes commercially available from Merck Millipore were used for CDK1, CDK2, CDK5, and CDK6 enzymes, respectively, and CDK4/cyclinD1 enzyme commercially available from Signalchem (US) was used for CDK4. For CDK1, a reaction proceeded by adding 10 nM CDK1/cyclinB and 0.125 mg/ml histone H1 (Merck Millipore) substrate to the buffer and then adding 10 uM ATP thereto. For CDK2, a reaction was proceeded by adding 10 nM CDK2/cyclinE and 0.125 mg/ml histone H1 substrate to the buffer and then adding 10 uM ATP thereto. For CDK5, a reaction was proceeded by adding 10 nM CDK5/p25 and 0.125 mg/ml histone H1 substrate to the buffer and then adding 10 uM ATP thereto. For CDK4, a reaction was proceeded by adding 20 nM CDK4/cyclinD1 and 0.125 mg/ml Rb protein (Merck Millipore) to the buffer and then adding 10 uM ATP thereto. For CDK6, a reaction was proceeded by adding 50 nM CDK6/cyclinD3 and 0.125 mg/ml histone H1 substrate to the buffer and then adding 10 uM ATP thereto. Each enzyme reaction was incubated at 30° C. for 60 min. Then, the amount of ADP produced was measured using Victor X4 instrument (Perkin Elmer) after generating luminescence using ADP-Glo kinase assay kit (Promega, US). An inhibition effect on each enzyme was represented as a percentage of the luminescence value in the presence of the test compounds relative to the luminescence value without the test compounds. IC50 (nM) is the concentration of the compound to inhibit 50% of the enzyme activity.

CDK2/cyclinE = molecular target: T2, CDK2/cyclinE (Homo sapiens, UniProt P24941); assay: as above; type: biochemical; conditions: 10 uM ATP, histone H1 substrate
T2 construct: purchased Merck Millipore
Procedure: as §1, §2

CDK5/p25 = molecular target: T3, CDK5/p25 (Homo sapiens, UniProt Q00535); assay: as above; type: biochemical; conditions: 10 uM ATP, histone H1 substrate
T3 construct: purchased Merck Millipore
T3 sequence (Q00535 whole entry): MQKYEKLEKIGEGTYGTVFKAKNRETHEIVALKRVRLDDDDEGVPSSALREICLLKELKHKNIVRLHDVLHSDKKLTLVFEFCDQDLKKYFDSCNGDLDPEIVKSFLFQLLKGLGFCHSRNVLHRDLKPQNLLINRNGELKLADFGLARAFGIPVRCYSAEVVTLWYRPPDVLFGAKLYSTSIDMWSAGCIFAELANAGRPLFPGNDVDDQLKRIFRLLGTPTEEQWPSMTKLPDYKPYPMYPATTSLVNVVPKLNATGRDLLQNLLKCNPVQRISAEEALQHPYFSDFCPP
T3 sequence (Q15078 99-307 partner limits assumed): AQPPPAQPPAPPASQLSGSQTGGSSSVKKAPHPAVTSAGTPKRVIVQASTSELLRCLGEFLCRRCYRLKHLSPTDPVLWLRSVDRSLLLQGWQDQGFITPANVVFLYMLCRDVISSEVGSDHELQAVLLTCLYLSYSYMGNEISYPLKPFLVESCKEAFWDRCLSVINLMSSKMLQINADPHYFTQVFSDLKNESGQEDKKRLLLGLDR
Procedure: as §1, §2

A549 = assay: Inhibition of cancer cell proliferation (MTT); type: cell-based, human; conditions: Homo sapiens, A549, 72 h
Procedure, shortened: (§3)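 Growth inhibition over 72 h was measured in attached cultures (3000 per well) with 0.08% DMSO as the control. Viable cells were detected with a 2 h MTT step, and the concentration giving 50% inhibition was taken as GI50.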

HCT116 = assay: Inhibition of cancer cell proliferation (MTT); type: cell-based, human; conditions: 72 hrs
NCI-H23 = assay: Inhibition of cancer cell proliferation (MTT); type: cell-based, human; conditions: Homo sapiens, NCI-H23, 72 h
Procedure, shortened: as §3

T98G = assay: Inhibition of cancer cell proliferation (MTT); type: cell-based, human; conditions: 72 hrs
Procedure, shortened: as §3

U-87MG = assay: Inhibition of cancer cell proliferation (MTT); type: cell-based, human; conditions: 72 hrs
Procedure, shortened: as §3

[1] = Blood brain barrier permeation; type: in vivo, ICR mice; conditions: mouse, oral once 10 mg/kg, 10 mg/kg
Procedure: Using 9-week-old male ICR mice, the compounds obtained in the above Examples were orally administered once at a dose of 10 mg/kg or 30 mg/kg, and after 1 hr and 4 hrs, the concentrations of the compounds in the blood and brain of the mice were determined. 3 ICR mice were assigned in each group. Plasma was separated from the blood obtained after sacrificing the mice at each time, the brain of the mice was extracted, and the […] was washed with PBS, followed by pulverizing the brain tissue. The blood was placed in a test tube containing heparin to prevent coagulation and then was centrifuged at 12,000 rpm at 4° C. for 3 min to give a supernatant from which plasma was collected. Brain tissue was weighed, and the brain was pulverized using Dounce's homogenizer after adding 3 times as much volume of PBS as the brain weight. Each of the obtained analytical samples was quantitatively analyzed using a tandem liquid chromatography-mass spectrometer (Tandem LC/MS/MS, API3000 & Agilent 1100 series). Brain permeability of a compound is expressed as a value obtained by dividing the concentration of the compound in the brain by the concentration of the compound in the plasma (B/P ratio), and when the B/P ratio is greater than 1, it means that the concentration in the brain is higher than the one in the blood.

Aβ (amyloid β protein) = assay: Inhibition of Aβ generation in B103/APP cells (Aβ42 ELISA); type: cell-based; conditions: Rattus norvegicus, 72 hrs
Procedure: The APP gene was inserted into B103 cells so that APP could be stably expressed and the resulting B103/APP cells were used to confirm inhibition of APP phosphorylation and Aβ generation.
Further, to confirm whether Aβ generation is reduced due to APP phosphorylation inhibition, 5×10^5 B103/APP cells were cultured in a 6-well plate for 16 hrs. Afterwards, the compounds obtained in the above Examples were added at 100 nM, 75 nM, 50 nM, 25 nM, 12.5 nM to a medium containing 500 ug/ml of G418 and 0.5% FBS and incubated for 72 hrs. After 72 hrs, the amount of Aβ was quantified using the medium by Human Aβ42 ELISA kit (Invitrogen).

T1 sequence (P06493 whole entry): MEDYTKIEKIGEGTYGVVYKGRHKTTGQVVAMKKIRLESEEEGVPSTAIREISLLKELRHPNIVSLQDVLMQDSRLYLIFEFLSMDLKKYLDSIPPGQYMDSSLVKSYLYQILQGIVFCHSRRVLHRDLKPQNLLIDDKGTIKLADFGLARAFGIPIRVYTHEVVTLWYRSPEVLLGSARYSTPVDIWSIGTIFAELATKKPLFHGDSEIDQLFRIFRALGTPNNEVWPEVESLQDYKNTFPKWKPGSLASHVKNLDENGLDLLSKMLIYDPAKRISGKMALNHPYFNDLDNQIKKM
T1 sequence (P14635 whole entry partner): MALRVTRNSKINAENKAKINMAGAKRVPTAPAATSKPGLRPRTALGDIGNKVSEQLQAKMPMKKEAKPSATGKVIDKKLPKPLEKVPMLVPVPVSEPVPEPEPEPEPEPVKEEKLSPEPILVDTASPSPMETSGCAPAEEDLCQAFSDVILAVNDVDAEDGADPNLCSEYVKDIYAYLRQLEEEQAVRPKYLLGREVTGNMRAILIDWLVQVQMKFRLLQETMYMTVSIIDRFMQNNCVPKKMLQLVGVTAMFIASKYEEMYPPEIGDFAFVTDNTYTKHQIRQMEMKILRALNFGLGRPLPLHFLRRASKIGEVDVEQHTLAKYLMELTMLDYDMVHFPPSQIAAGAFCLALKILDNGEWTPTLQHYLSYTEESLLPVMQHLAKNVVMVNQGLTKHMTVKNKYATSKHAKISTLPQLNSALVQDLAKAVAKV

IC50 (CDK1/cyclinB): 0.6 nM | IC50 (CDK2/cyclinE): 1 nM | IC50 (CDK5/p25): 0.3 nM | GI50 (A549): 30 nM | GI50 (HCT116): 10 nM | GI50 (NCI-H23): 30 nM | GI50 (T98G): 30 nM | GI50 (U-87MG): 20 nM | B/P ratio ([1]; 1 hr): 2.44 | Concentration in the brain ([1]; 1 hr): 80.5 ng/g | Concentration in the plasma ([1]; 1 hr): 32.9 ng/mL | B/P ratio ([1]; 4 hrs): 2.93 | Concentration in the brain ([1]; 4 hrs): 58.9 ng/g | Concentration in the plasma ([1]; 4 hrs): 20.1 ng/mL
SMILES: Nc1nccc(-c2nc(-c3ccnc(N)c3F)ccc2O)n1 [Example 66]
inhibition at 0.0125 µM (Aβ (amyloid β protein); 12.5 nM): 36.6% | inhibition at 0.025 µM (Aβ (amyloid β protein); 25 nM): 46.6% | inhibition at 0.05 µM (Aβ (amyloid β protein); 50 nM): 75.9% | inhibition at 0.075 µM (Aβ (amyloid β protein); 75 nM): 100% | inhibition at 0.1 µM (Aβ (amyloid β protein); 100 nM): 100%
